# Source: patent US20120041065A1, “LAURIC ACID DISTILLATE FOR ANIMAL FEED” (CAN TECHNOLOGIES, INC., priority 2010, published 2012)
# B1: papain: protease fed alone and in combination with hydrolyzed lauric acid (protein, UniProt P00784 134-345, looked up)
# Papain: IPEYVDWRQKGAVTPVKNQGSCGSCWAFSAVVTIEGIIKIRTGNLNEYSEQELLDCDRRSYGCNGGYPWSALQLVAQYGIHYRNTYPYEGVQRYCRSREKGPYAAKTDGVRQVQPYNEGALLYSIANQPVSVVLEAAGKDFQLYRGGIFVGPCGNKVDHAVAAVGYGPNYILIKNSWGTGWGENGYIRIKRGTGNSYGVCGLYTSSFYPVKN
# Tests used:
# [1] = tested on: grow-finish pigs; experiment: Fifth study: growth performance of grow-finish pigs fed HLAD, LA or BMD; details: P<0.05
# [2] = tested on: male broiler chickens (Ross 708); details: in vivo
# [3] = tested on: male broiler chickens (Ross 708); experiment: First study: growth performance and carcass evaluation in broilers fed HPKFAD or LA
# [4] = tested on: pigs (initial BW of 9.98 lbs); experiment: Fourth study: nursery pig challenge model (dirty room) with LAD, Mecadox, calsporin; format: in vivo; details: severely challenged pigs; d 0 to 40
# Procedure: A total of 96 pigs (initial BW of 9.98 lbs) were allotted to one of 8 treatments (12 replicates per treatment with 1 pigs per replicate). The treatments were 1) a negative control (NC) diet with no antibiotic (Ab), 2) a control diet with an Ab (Mecadox), 3) a diet with LAD at 0.25%, 4) a diet with LAD at 0.5%, 5) a diet with LAD at 1%, 6) a diet with calsporin, 7) a diet with calsporin and LAD at 1%, 8) and a diet with calsporin and LAD at 0.5%. Feed intakes and body weights were determined at the end of each feeding phase. […] Also, ZnO and CuSO4 were not added into the diet to enhance the challenge. The feeding phases were from d 0 to […], d 11 to 20, d 20 to 40. The data, especially from Phase 1 and 2, illustrated the pigs were severely challenged in this trial, which enhanced the effect of the antibiotic. […] The optimum level of LAD was 0.25% for the early growth period and increased to 0.50% for the later growth period. Accordingly, the recommended level of HLAD to be fed to nursery pigs is between 0.25% and 0.5%.
# [5] = tested on: broilers challenged with coccidian vaccine and Clostridium Perfringens; format: in vivo; details: versus negative control; throughout the study
# [6] = tested on: broilers challenged with coccidia and Clostridia perfringens; format: in vivo
# [7] = tested on: broilers challenged with coccidian vaccine and Clostridium Perfringens; format: in vivo; details: diets that contained papain relative to any other diet; P<0.05
molecule,measurement,setting,value
"CCCCCCCCCCCC(=O)O [LA, lauric acid]","ADFI, Phase 3",[1]; LA at 0.1% relative to control diet or HLAD at 0.4%,decreased
same,"Removed Animals (Adverse Event), overall proportion of animals removed",[2],no differences
same,overall ADFI,"[3]; LA 0.1% versus negative control, P=0.166",numerically lower but not statistically significant
same,overall ADG,"[3]; LA included at 0.2 and 0.4%, P 0.038",decline in overall ADG
same,breast and leg yield,[3]; LA treatments,did not so such an increase
same,"overall feed efficiency, dose response","[3]; across inclusion levels, P<0.001",significant linear and plateau responses
same,overall ADFI,[3]; all non-zero LA treatments except 0.1% versus negative control,decrease
same,overall ADFI,"[3]; all non-zero treatments versus negative control, P 0.045",decrease
same,overall feed efficiency,"[3]; included at 0.4 and 0.8% compared to negative control, P>0.016 as printed",improved
same,Average Hot Carcass Weight,"[3]; non-zero treatments versus control, P≧0.111",no differences
same,Average Breast Weight,"[3]; non-zero treatments versus control, P≧0.236",no treatment differences
same,Average Leg Weight,"[3]; non-zero treatments versus control, P≧0.267",no treatment differences
same,Percent Leg Yield,"[3]; other HPKFAD and LA treatment comparisons, P≧0.195",No other treatment differences
same,Percent Breast Yield,"[3]; other HPKFAD and LA treatment comparisons, P≧0.404",No other treatment differences
COC(=O)N/N=C/c1c[n+]([O-])c2ccccc2[n+]1[O-] [Mecadox],performance (feed intakes and body weights),[4],improved performance
bacitracin methylene disalicylate [BMD],"Feed efficiency, Phase 2",[1]; antibiotic relative to LA at 0.1% or HLAD at 0.4%,increased
same,performance,[5],tended to have improved performance
same,performance,[6]; BMD,only tended to improve performance
same,"feed intake, day 7","[6]; BMD relative to any other dietary treatment, P<0.05",higher
B1,ADG,[7],decreased
same,Feed intake,[7],decreased
